Results: BigSolDB 2.1

O=[N+]([O-])c1cccc(Cl)c1Cl
solubility (mole fraction)
Details | in cyclohexane | in ethyl acetate | in isopropanol | in n-butanol | in n-heptane | in n-hexane | in n-propanol | in tetrachloromethane
278.15 K | 0.0137 | 0.212 | 0.00992 | 0.0254 | 0.00633 | 0.00535 | 0.0222 | 0.0619
280.65 K | 0.0156 | 0.269 | 0.0116 | 0.0331 | 0.00962 | 0.00888 | 0.0247 | 0.0811
283.15 K | 0.0184 | 0.331 | 0.0148 | 0.0401 | 0.0128 | 0.0112 | 0.0275 | 0.097
285.65 K | 0.0199 | 0.388 | 0.0169 | 0.0453 | 0.0146 | 0.0134 | 0.0295 | 0.11
288.15 K | 0.0212 | 0.435 | 0.0199 | 0.0501 | 0.017 | 0.015 | 0.0318 | 0.12
290.65 K | 0.0266 | 0.486 | 0.0243 | 0.0527 | 0.0212 | 0.0172 | 0.035 | 0.13
293.15 K | 0.0317 | 0.521 | 0.0286 | 0.0563 | 0.0251 | 0.0214 | 0.0387 | 0.15
295.65 K | 0.0377 | 0.569 | 0.0336 | 0.0589 | 0.0276 | 0.0231 | 0.0421 | 0.194
298.15 K | 0.0421 | 0.592 | 0.0394 | 0.0614 | 0.0322 | 0.0245 | 0.0456 | 0.241
300.65 K | 0.0474 | 0.645 | 0.0452 | 0.0645 | 0.0345 | 0.0277 | 0.0511 | 0.312
303.15 K | 0.0549 | 0.682 | 0.05 | 0.0679 | 0.038 | 0.031 | 0.0575 | 0.38

O=[N+]([O-])c1ccc(Cl)c(Cl)c1
solubility (mole fraction)
Details | in cyclohexane | in ethyl acetate | in isopropanol | in n-butanol | in n-heptane | in n-hexane | in n-propanol | in tetrachloromethane
278.15 K | 0.0568 | 0.249 | 0.0157 | 0.0389 | 0.0296 | 0.0293 | 0.0506 | 0.129
280.65 K | 0.0632 | 0.332 | 0.0199 | 0.0443 | 0.0326 | 0.0363 | 0.0519 | 0.182
283.15 K | 0.0703 | 0.405 | 0.0221 | 0.0486 | 0.0424 | 0.0425 | 0.0537 | 0.244
285.65 K | 0.0774 | 0.463 | 0.0272 | 0.0542 | 0.0451 | 0.0476 | 0.0582 | 0.302
288.15 K | 0.0865 | 0.541 | 0.0318 | 0.0593 | 0.0505 | 0.0518 | 0.0634 | 0.362
290.65 K | 0.111 | 0.602 | 0.036 | 0.0665 | 0.0564 | 0.0572 | 0.0724 | 0.435
293.15 K | 0.154 | 0.668 | 0.0439 | 0.0735 | 0.063 | 0.0634 | 0.0819 | 0.511
295.65 K | 0.25 | 0.719 | 0.0615 | 0.0819 | 0.0662 | 0.0699 | 0.0935 | 0.572
298.15 K | 0.343 | 0.778 | 0.0783 | 0.0999 | 0.0729 | 0.0824 | 0.115 | 0.644
300.65 K | 0.511 | 0.822 | 0.0981 | 0.118 | 0.0908 | 0.115 | 0.139 | 0.722
303.15 K | 0.751 | 0.866 | 0.124 | 0.136 | 0.132 | 0.173 | 0.173 | 0.792
